Values of other authors in patent US6565840B1, “Monomeric compositions effective as wound closure devices” (Closure Medical Corporation, priority 1996, dated 2003).

pKa: 5.9
SMILES: CC(=O)C(C(C)=O)C(C)=O [triacetylmethane]
